Tested on: gram positive bacteria
Experiment: Inhibition of gram positive bacteria growth in corn mash media
Type: cell-based
Conditions: typical corn mash media
Description: If added just to a propagator the isopellets should be diluted down to 2 to 20 ppm in a fermenter. The hop acids employed are not limited to isomerized hop acids but can also be stabilized unisomerized hop pellets. The stabilized hop pellet, can be isomerized into isoalpha acids once placed into 70° C. or hotter hot water for thirty or more minutes. Once this isomerization is completed the mixture can be added to the yeast propagator or fermenter. The unexpected results include reduced levels of isoalpha acid required to inhibit gram positive bacteria growth, better antibacterial protection toward the end of fermentation, and increased yeast alcohol tolerance. Typically about 15 ppm of isoalpha acid is required to inhibit most gram positive bacteria growth in a typical corn mash media; however, we discovered that isomerized hop pellets made in accordance with the present invention can inhibit bacteria growth at an isoalpha acid dosage of about 12 ppm. While not wishing to be bound by theory, it is believed iso-pellets made in accordance with the present invention also contain beta acids, which are very effective at inhibiting gram positive bacteria growth. Unfortunately beta acids ordinarily are not soluble in corn mash or cereal fermentations, and thus their antibacterial effect is worthless. […]

isoalpha acid
isoalpha acid dosage required to inhibit gram positive bacteria growth: about 15 ppm
